Experimental findings from PubChem BioAssay (NCI) are described below.

Values joined by “and” are separate entries in the source; they are usually repeats but may differ in a detail not shown here. Equal values may be shown once.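 All cell lines were grown in 96-well plates and treated with compound for 48 hours. At the GI50, growth is halved. Definition used: TGI = concentration required for complete inhibition of growth.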 Some results are limits rather than exact numbers.

Among the test systems are MOLT-4 leukemia; HOP-62 NSCLC; SF-295 CNS; SR leukemia; SF-268 CNS; HOP-92 NSCLC; NCI-H23 lung; SK-MEL-5 melanoma; T-47D breast; BT-549 breast.
What all share (assay): DTP human tumour cell line panel, 48 h

As for `CC(=O)NNc1nc(C)c(C(/C=C/c2ccc(Cl)cc2)=N\N=C(N)N)s1`, the TGI in the experiment on MOLT-4 leukemia, in the experiment with HOP-62 NSCLC, in the experiment on SF-295 CNS, with SR leukemia, with SF-268 CNS and in the experiment on HOP-92 NSCLC was above 100 µM each time. The TGI in the experiment with NCI-H23 lung and in the experiment with SK-MEL-5 melanoma was above 100 µM in each case.
As to `CC[C@@]1(O)C(=O)OCc2c1cc1n(c2=O)Cc2cc3c(CN(C)C)c(O)ccc3nc2-1`, the GI50 in the experiment with MOLT-4 leukemia was < 10 nM and 3.17 nM; in the experiment with HOP-62 NSCLC, 10.2 nM and 6.21 nM and 16.3 nM; in the experiment on SF-295 CNS, < 10 nM and 10.4 nM and 30.4 nM; with SF-268 CNS, < 10 nM and 5.17 nM and 17.5 nM; with T-47D breast it was < 11.7 nM and 18.9 nM and 18.6 nM; in the experiment with NCI-H23 lung, 8.8 nM and 36.2 nM. Also, the GI50 in the experiment with SK-MEL-5 melanoma was 19.7 nM and 19.1 nM and 44.8 nM.
With `COC(=O)CNC(=O)CNC(=O)CSc1nnc(COc2ccc(Cl)cc2)n1-c1ccccc1`, the TGI in the experiment on BT-549 breast is 58.8 µM; with MOLT-4 leukemia it was above 100 µM; in the experiment on HOP-62 NSCLC it was above 100 µM; in the experiment with SF-295 CNS it was above 100 µM; in the experiment on SR leukemia, 86.6 µM; with SF-268 CNS it was 51.6 µM. The TGI in the experiment on HOP-92 NSCLC was 49.5 µM; with NCI-H23 lung, above 100 µM; in the experiment with SK-MEL-5 melanoma it was 41 µM.
For `CCN(CC)C(=S)/N=C(\SC(=S)N(CC)CC)c1ccccc1`, the TGI was above 100 µM with BT-549 breast; above 74.8 µM with MOLT-4 leukemia; above 83.2 µM with HOP-62 NSCLC; above 100 µM in the experiment with SF-295 CNS; above 100 µM in the experiment with SF-268 CNS; above 100 µM in the experiment with HOP-92 NSCLC. Besides, the TGI in the experiment with T-47D breast, with NCI-H23 lung and with SK-MEL-5 melanoma was above 100 µM each time.
Take `O=C(CSc1nnc(Cc2ccccc2)o1)Nc1ccc(Cl)cc1[N+](=O)[O-]`: the TGI in the experiment on MOLT-4 leukemia was above 100 µM; in the experiment with HOP-62 NSCLC, 31.3 µM; with SF-295 CNS it was 34.2 µM; in the experiment with SR leukemia, above 100 µM; with SF-268 CNS, 40.2 µM; in the experiment on NCI-H23 lung, 36 µM. The same molecule came in with a TGI in the experiment with SK-MEL-5 melanoma of 30.9 µM.
`CCOC(=O)NC(Nc1ccc(S(=O)(=O)Nc2ccc(OC)nn2)cc1)(C(F)(F)F)C(F)(F)F`: the total growth inhibition concentration (TGI) with MOLT-4 leukemia is 49.5 µM; with HOP-62 NSCLC it was 59.6 µM; with SF-295 CNS, above 100 µM; in the experiment with SR leukemia, 55.8 µM; in the experiment on SF-268 CNS it was above 100 µM; with HOP-92 NSCLC, 73.2 µM. For the same molecule, the TGI in the experiment with T-47D breast is above 100 µM; with NCI-H23 lung it was 96.4 µM; with SK-MEL-5 melanoma, 32 µM.
`O=C1C[C@@H]2[C@@H](CCC23CCCC3)N1`: the TGI in the experiment with MOLT-4 leukemia, in the experiment on HOP-62 NSCLC, in the experiment on SF-295 CNS, in the experiment with SF-268 CNS, in the experiment with NCI-H23 lung and in the experiment with SK-MEL-5 melanoma was above 100 µM in each case.
As to `CN(CC(=O)O)CC(=O)O`, the concentration for total growth inhibition (TGI) with BT-549 breast, in the experiment with MOLT-4 leukemia, in the experiment with HOP-62 NSCLC, in the experiment with SF-295 CNS, with SF-268 CNS and in the experiment with HOP-92 NSCLC was above 100 µM throughout. Moreover, the TGI with T-47D breast, in the experiment on NCI-H23 lung and in the experiment with SK-MEL-5 melanoma was above 100 µM each time.
For the molecule `O=C(NC(=O)c1ccccc1)OC(c1ccccc1)C1CO1` (centres undefined), the TGI in the experiment on BT-549 breast, with MOLT-4 leukemia, with HOP-62 NSCLC, in the experiment with SF-295 CNS, in the experiment with SF-268 CNS and in the experiment with T-47D breast was above 100 µM in each case. The TGI in the experiment on NCI-H23 lung and in the experiment on SK-MEL-5 melanoma was above 100 µM each time.
For the molecule `N#Cc1sc2c(c1OC(=O)c1ccc(Cl)cc1)c(=O)n(-c1ccccc1)c(=S)n2-c1ccccc1`, the TGI with MOLT-4 leukemia turned out to be 68.7 µM; in the experiment on HOP-62 NSCLC it was 82.7 µM; with SF-295 CNS, 65.9 µM; in the experiment with SR leukemia, 75.9 µM; with SF-268 CNS, 97.7 µM; with HOP-92 NSCLC, 66.7 µM. Moreover, the TGI was above 100 µM in the experiment with T-47D breast, 65.8 µM in the experiment with NCI-H23 lung and 38.8 µM in the experiment on SK-MEL-5 melanoma.
For the molecule `O=C1N=CN=C2C=CC(Cl)=C(I)C12` (centres undefined), the TGI in the experiment on MOLT-4 leukemia, in the experiment on HOP-62 NSCLC, in the experiment with SF-295 CNS, in the experiment on SR leukemia, with SF-268 CNS and in the experiment on NCI-H23 lung was above 100 µM each time. In the experiment with SK-MEL-5 melanoma, the TGI is above 100 µM.
`O=[N+]([O-])c1cnc(N(CCO)CCO)s1`: the total growth inhibition concentration (TGI) in the experiment with MOLT-4 leukemia, with HOP-62 NSCLC, in the experiment with SF-295 CNS, with SR leukemia, in the experiment on SF-268 CNS and with HOP-92 NSCLC was above 100 µM in each case. The TGI in the experiment on T-47D breast, in the experiment with NCI-H23 lung and in the experiment with SK-MEL-5 melanoma was above 100 µM throughout.
Take `CC(C)COC(=O)c1ccc(N=Cc2ccc(C=Nc3ccc(C(=O)OCC(C)C)cc3)cc2)cc1`: the TGI with MOLT-4 leukemia, in the experiment on HOP-62 NSCLC, in the experiment with SF-295 CNS, with SR leukemia, with SF-268 CNS and with HOP-92 NSCLC was above 100 µM throughout. The molecule also displayed a concentration for total growth inhibition (TGI) with NCI-H23 lung above 100 µM.
Consider `CCOc1ccc(N2C(=O)NC3(c4ccccc4)N(C)C(=O)N(C)C23c2ccccc2)cc1` (centres undefined), for which the TGI with BT-549 breast, in the experiment on MOLT-4 leukemia, in the experiment with HOP-62 NSCLC, in the experiment with SF-295 CNS, in the experiment on SR leukemia and in the experiment on HOP-92 NSCLC was above 100 µM throughout. For the same molecule, the total growth inhibition concentration (TGI) in the experiment on NCI-H23 lung and in the experiment on SK-MEL-5 melanoma was above 100 µM throughout.
On to `Cc1cccc2c(N)c3cccc(C(=O)NCC[N+](C)(C)Cc4ccc(S(C)(=O)=O)cc4)c3nc12`, for which the TGI in the experiment on BT-549 breast, in the experiment with HOP-62 NSCLC, with SF-295 CNS, in the experiment on SF-268 CNS, in the experiment on HOP-92 NSCLC and in the experiment with T-47D breast was above 100 µM in each case. In addition, the TGI with NCI-H23 lung and in the experiment on SK-MEL-5 melanoma was above 100 µM in each case.
Take `OCC1C2CCC3(OCCO3)C12` (centres undefined): the TGI in the experiment on BT-549 breast was 35.6 µM; in the experiment on MOLT-4 leukemia, above 100 µM; in the experiment with HOP-62 NSCLC, above 100 µM; in the experiment on SF-295 CNS it was above 100 µM; with SR leukemia it was above 100 µM; in the experiment on SF-268 CNS it was above 100 µM. Further, the values for the TGI in the experiment on HOP-92 NSCLC, in the experiment on NCI-H23 lung and with SK-MEL-5 melanoma were above 100 µM, 33.7 µM and above 100 µM, respectively.
